Results published in patent publication US11690853B2, “Non-hormonal steroid modulators of NF-κβ for treatment of disease” (ReveraGen BioPharma, Inc., priority 2015, dated 2023).
“Also recorded” adds a separate entry of the source.

Tests used:
mdx mice [1] = assay: mdx mouse model of dystrophy: body weight; type: in vivo; conditions: prednisolone 5 mg/kg/day per oral in feed; 33.8 weeks age; P<0.05
Description: (§1) Separate groups (n=12-14) of mdx mice were treated with prednisolone (5 mg/kg/day; per oral in feed), Example 1 (20 and 40 mg/kg/day; per oral in feed) and Example 2 (20 and 40 mg/kg/day; per oral in feed) for 3 months. All mice underwent 30 min biweekly treadmill exercise during the treatment duration to unmask the mild disease phenotype of mdx mouse model.

mdx mice [2] = assay: mdx mouse model: in vitro force contractions of EDL muscle; type: in vivo; conditions: prednisolone 5 mg/kg/day; P<0.05
Description: as §1
The distal tendon of the extensor digitorum longus (EDL) muscle was tied securely to the lever arm of a servomotor/force transducer (model 305B, Aurora Scientific, Richmond Hill, ON, Canada) and the proximal tendon to a tissue clamp. Muscles were stimulated between two platinum electrodes. […] With the muscle held at Lo using stimulation frequencies of 30, 50, 80, 100, 120 and 150 Hz, the maximum isometric tetanic force (Po) developed during a 300 ms train of stimulation pulses was recorded for the EDL muscle. The muscle length was then measured with calipers and after removal of the muscle from the bath the mass of the muscle was determined. For each muscle, the optimum fiber length (Lf) was calculated by multiplying Lo by a previously determined Lf/Lo ratio of 0.45. Total muscle fiber cross-sectional area was determined by dividing the wet mass by the product of Lf and the density of mammalian skeletal muscle (1.06 mg/mm^3). […]

mdx mice [3] = assay: mdx mouse model: histological evaluation of gastrocnemius muscle (H&E); type: in vivo; conditions: H&E staining; 3 months treatment; comparison to untreated and prednisolone treated mdx mice
Description: as §1
Hematoxylin and Eosin staining of gastrocnemius muscle of untreated mdx mice show significant degeneration and inflammation.

DBA/1 mice = assay: Collagen antibody induced arthritis (CAIA) model; type: in vivo, mouse; parameters: Mean clinical severity score, Day 7 / Mean clinical severity score, Day 9 / Mean clinical severity score, Day 11 / Mean clinical severity score, Day 14: scale not given here; conditions: for Mean clinical severity score, Day 7 / Mean clinical severity score, Day 9 / Mean clinical severity score, Day 11 / Mean clinical severity score, Day 14: oral, day 0 through day 14; for Mean clinical severity score, Day 7 / Mean clinical severity score, Day 9 / Mean clinical severity score, Day 11 / Mean clinical severity score, Day 14 / Reduction as compared with vehicle-treated mice, Day 7 / Reduction as compared with vehicle-treated mice, Day 9 / Reduction as compared with vehicle-treated mice, Day 11 / Reduction as compared with vehicle-treated mice, Day 14: prednisone 5 mg/kg, Example 7 20 mg/kg
Description: On day 1, DBA/1 mice (Jackson Labs, Bar Harbor, Me.) received an intraperitoneal (i.p.) injection of 2 mg of monoclonal antibody cocktail specific for collagen (CII) (MD Biosciences, St. Paul, Minn.). Two days later (day 3), mice received an i.p. injection of 100 μg of lipopolysaccharide (LPS). Mean clinical severity of CAIA was determined using a macroscopic clinical severity scoring system every 2-3 days by three individuals until the end of the experiment (day 14 post antibody cocktail injection). The scoring criteria was performed as follows:
For intervention studies, mice (n=10) received an oral dose of 20 mg/kg of the compound of Example 7 suspended in cherry syrup (30 μl total volume) on day 0 through day 14. Additional groups of mice (n=10) received 5 mg/kg of prednisone in cherry syrup as a positive control, or cherry syrup alone as a negative control. On day 14, animals were sacrificed via CO2 exposure. Statistical analysis was performed using a two-way ANOVA followed by a Bonferroni post-hoc test.

[4] = system: knockout-transgenic sickle cell mice; assay: Mouse model of sickle cell disease; type: in vivo; conditions: 30 mg/kg, 6 weeks
Description: Example 7 was tested in a mouse model of sickle cell disease, knockout-transgenic sickle cell mice were used which have been previously described in Meiler S E et al. 2001.
Female knockout-transgenic sickle mice (aged 6-8 weeks), were treated for 6 weeks with Example 7, (30 mg/kg) (n=5), or a vehicle control (cherry syrup) (n=5). At the end of the 6 week treatment, hematologic parameters were measured and tissues were harvested. Additionally, nociception evaluation was performed before and after treatment by assessing sensitivity to hot and cold pain as previously described in Le Bars D. et al. 2001.

C57BL/6 mice = assay: Mouse carrageenan-induced paw edema model; type: in vivo; conditions: Example 7 10, 20, 40 mg/kg in cherry syrup; 5 hours after carrageenan
Description: Female C57BL/6 mice (n=5 per group) were administered prednisone (5 mg/kg) and the compound of Example 7 (10, 20, 40 mg/kg) in cherry syrup. 24 hours later, drugs and vehicle control (syrup) were administered again. 2 hours later, mice were anesthetized, paw thickness was measured with a caliper to obtain a baseline value, and 1% carrageenan was injected subcutaneously in the subplantar region of the right hind paw. Mice were sacrificed 5 hours later and paw edema was measured via caliper. Change in thickness was calculated by subtracting baseline value from post-carrageenan injection value. Statistical analysis was performed using a Student's T-test.

Female beagle dogs = assay: Corpora lutea in female dogs, 39-week treatment; type: in vivo, dog; conditions: at ≥2 mg/kg/day, dose-dependent increases in incidence; doses of 2, 10, or 50 mg/kg for 39 weeks
Description: Female beagle dogs were treated with Example 7 for 39 weeks at doses of 2, 10, or 50 mg/kg. This experiment was performed at MPI (report #1998-014). Ovaries were examined by a trained pathologist.

OVA-primed mice = assay: OVA-induced mouse model of acute allergic asthma; type: in vivo; conditions: 20 mg/kg oral on days 6-11
Description: The model used in the current studies has been previously described (Gwinn et al. 2006; Balsley et al. 2010). Briefly, mice were primed via intraperitoneal (i.p) injection with 50 μg of OVA in PBS with 100 μl of alum (200 μl total volume per mouse) on day 0. OVA-primed mice were challenged under light anesthesia (isoflurane) by intranasal delivery of 100 μg of OVA in PBS on days 7-10. Mice were sacrificed via CO2 exposure on day 12 for analysis.
For in vivo intervention studies, mice (n=5) received an oral dose of 20 mg/kg of the compound of Example 7 suspended in cherry syrup (30 μl total volume) on days 6-11. Additional groups of mice (n=5) received 5 mg/kg of prednisone in cherry syrup as a positive control, or cherry syrup alone as a negative control. Following sacrifice on day 12, leukocytes were collected from the airways via bronchoalveolar lavage (BAL). For this procedure, a cannula was inserted into the trachea and two 1 ml washes of cold PBS were infused in and out of the airways. […]
BAL and lung tissue cells were treated with ammonium chloride lysis buffer to remove red blood cells. The remaining leukocytes were then counted and stained for FACS analysis with a combination of PE-Cy5-anti-mouse CD4 and FITC-anti-mouse CD62L to identify effector/memory CD4+ cells (CD4+/CD62L−). […]

DBA mdx mice = assay: Heart function in mdx mice (echocardiography); type: in vivo, mouse; conditions: 15 and 30 mg/kg/day oral syrup, 8 weeks
Excerpt: To test the compound of Example 7 and its relationship to heart function, 4 groups of mdx mice (n=10, per group) and 1 group of wild type mice (n=10, per group) were studied. The groups were as indicated as such in Table 2.
The method of administration was a daily oral syrup an the treatment period was eight (8) weeks. The age at the start of the first dose was 6-7 weeks. Echocardiography was used to assess ejection fraction and fraction shortening following drug treatment.

[5] = system: J:NU mice injected with BSG mouse CSPG4+/+ cells; assay: Mouse model of diffuse intrinsic pontine glioma; type: in vivo
Description: A murine model of brainstem glioma developed in Dr. Javad Nazarian's laboratory at Children's National Medical Center was used for testing VBP15 efficacy in vivo. BSG mouse CSPG4+/+ cells were expanded in culture to form neurospheres and were subsequently injected into brainstems of 2-day old (P2) J:NU mice. Dexamethasone (Dex) (2.5 mg/kg body weight), Example 7 (30 mg/kg body weight) and cherry syrup (control) were orally administered daily for […] starting on postnatal day 11. In another study, mice were treated daily with Dexamethasone (Dex) (2.5 mg/kg), Example 7 (30 mg/kg) or cherry syrup from post-natal days 10-46.

Row | Structure (SMILES) | Histology of skeletal muscle: inflammation, degeneration, regenerating fibers (mdx mice [3]) | Mean clinical severity score, Day 7 (DBA/1 mice) | Mean clinical severity score, Day 9 (DBA/1 mice) | Mean clinical severity score, Day 11 (DBA/1 mice) | Mean clinical severity score, Day 14 (DBA/1 mice) | Reduction as compared with vehicle-treated mice, Day 7 (DBA/1 mice) | Reduction as compared with vehicle-treated mice, Day 9 (DBA/1 mice) | Reduction as compared with vehicle-treated mice, Day 11 (DBA/1 mice) | Reduction as compared with vehicle-treated mice, Day 14 (DBA/1 mice) | further results
1 | C[C@]12C=CC(=O)C=C1CC[C@@H]1[C@@H]2[C@@H](O)C[C@@]2(C)[C@H]1CC[C@]2(O)C(=O)CO [Prednisolone] | appeared to increase degeneration and decrease in regeneration |  |  |  |  |  |  |  |  | Body weight versus untreated mice (mdx mice [1]): significantly lower body weight; Specific force of EDL muscle, difference to untreated group (mdx mice [2]): no statistically significant (P<0.05) difference
2 | C[C@]12CCC(=O)C=C1CCC1C2=CC[C@@]2(C)C1CC[C@]2(O)C(=O)CO (stereo partly drawn) [Example 1, (10S,13S,17R)-17-hydroxy-17-(2-hydroxyacetyl)-10,13-dimethyl-6,7,8,10,12,13,14,15,16,17-decahydro-1H-cyclopenta[a]phenanthren-3(2H)-one] | significant decrease in inflammation, degeneration, and increase in regenerating muscle fibers |  |  |  |  |  |  |  |  | 
3 | C[C@]12C=CC(=O)C=C1CCC1C2=CC[C@@]2(C)C1CC[C@]2(O)C(=O)CO (stereo partly drawn) [Example 2, (10S,13S,17R)-17-hydroxy-17-(2-hydroxyacetyl)-10,13-dimethyl-6,7,8,10,12,13,14,15,16,17-decahydro-3H-cyclopenta[a]phenanthren-3-one] | significant decrease in inflammation, degeneration, and increase in regenerating muscle fibers |  |  |  |  |  |  |  |  | 
4 | C[C@]12C=CC(=O)C=C1CC[C@@H]1[C@@H]2C(=O)C[C@@]2(C)[C@H]1CC[C@]2(O)C(=O)CO [Prednisone, reference compound] |  | 2.4 ± 0.68 | 1.5 ± 0.27 | 2.9 ± 0.39 | 0.7 ± 0.3 | 69.8% | 69.8% | 69.1% | 88.7% | 
5 | C[C@@H]1CC2C3CCC4=CC(=O)C=C[C@]4(C)C3=CC[C@]2(C)[C@@]1(O)C(=O)CO (stereo partly drawn) [Example 7, (10S,13S,16R,17R)-17-hydroxy-17-(2-hydroxyacetyl)-10,13,16-trimethyl-6,7,8,10,12,13,14,15,16,17-decahydro-3H-cyclopenta[a]phenanthren-3-one] |  | 4.5 ± 0.95 | 5.0 ± 0.77 | 5.6 ± 0.82 | 3.1 ± 0.69 | 43.8% | 35.5% | 41.3% | 50% | Platelet count [4]: decreases; also recorded: reduces platelet count; Sensitivity to cold pain [4]: strikingly decreases sensitivity to cold pain; also recorded: reduces sensitivity to cold pain; Sensitivity to heat pain [4]: significantly decreases sensitivity to heat pain; also recorded: reduces sensitivity to heat pain; Spleen size [4]: decreased spleen size; also recorded: reduces spleen size; White blood cell count [4]: decreases white blood cell count; also recorded: reduces white blood cell count; Collagen antibody induced arthritis, overall effect (DBA/1 mice; 20 mg/kg oral): effective at reducing collagen antibody induced arthritis; Paw edema induced by carrageenan (change in paw thickness) (C57BL/6 mice): effective at reducing mouse paw edema; Corpora lutea in the ovaries (Female beagle dogs): absent bilaterally; Acute allergic lung inflammation: leukocyte infiltration (eosinophils and CD4+ T cells) and mucus production (OVA-primed mice): effective at improving parameters of acute allergic lung inflammation; Ejection fraction (DBA mdx mice): improved ejection fraction; Fraction shortening (DBA mdx mice): improved fraction shortening; Increase in survival relative to mice treated with dexamethasone or control mice ([5]; 30 mg/kg daily from post-natal days 10-46): 19%; Brain edema ([5]; 30 mg/kg oral daily for 14 weeks starting on postnatal day 11): significant decrease in brain edema
